Entries after “also recorded” stand apart in the source; their conditions may differ.
Target: T1, OR5AN1 (Homo sapiens, UniProt Q8NGI8)
T1 construct: expressed in transfected cells
T1 sequence (Q8NGI8 1-311): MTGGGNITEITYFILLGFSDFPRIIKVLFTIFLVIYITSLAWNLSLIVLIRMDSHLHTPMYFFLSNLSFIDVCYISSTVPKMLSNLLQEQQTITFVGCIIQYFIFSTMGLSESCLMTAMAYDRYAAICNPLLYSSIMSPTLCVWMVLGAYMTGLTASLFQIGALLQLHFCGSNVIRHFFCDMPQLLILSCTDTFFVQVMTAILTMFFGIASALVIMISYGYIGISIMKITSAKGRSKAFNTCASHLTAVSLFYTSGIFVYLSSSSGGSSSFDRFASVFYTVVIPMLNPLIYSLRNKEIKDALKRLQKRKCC
Experiment: Ligand-induced blasticidin resistance, OR5AN1 cells (pGL4.29-CRE-BLAST-OR)
Assay type: cell-based
Text: To generate a vector allowing positive selection of cell clones with a functional expression of a specific OR gene, a blasticidin resistance gene was placed downstream of SEQ ID NO: 4. The pGL4.29-CRE-Puro-OR vector generated as described in Example 1 was digested with BgIII and FseI to remove the comprised basal promoter and the complete puromycin resistance gene. The removed basal promoter sequence was amplified with the primers […] (SEQ ID NO: 28), […] (SEQ ID NO: 63), and the blasticidin S deaminase (bsd, SEQ ID NO: 64) encoding sequence was amplified by PCR using the primers […] (SEQ ID NO: 66) […] (SEQ ID NO: 67). The two overlapping PCR products were joined by fusion PCR using primers […] (SEQ ID NO: 28) and […] (SEQ ID NO: 68). The resulting DNA fragment was digested with BgIII/FseI and ligated into the digested vector to generate pGL4.29-CRE-Blast-OR.
This vector was used to generate stable cell lines as described in Example 1.
Stable clones containing a stable insertion of the pGL4.29-CRE-BLAST-OR construct with the receptor OR5AN1 (NCBI Genbank Gene ID: 390195) were then plated at a density of 3000 cells/per well in 100 μl Dubelcco's Modified Eagle medium (DMEM) in polyethyleneimide-coated, white 96 well microtiter plates with a transparent bottom. After cells were allowed to adhere for 24 h, 50 μl of medium containing different odorants (musk ketone or ethyl vanillin at 40 μM) was added to each well resulting in an odorant concentration of 13.3 μM. 6 h after odorant addition, 50 μl of medium containing blasticidin was added to reach a final concentration of 0.5-256 μg/ml in 10 two-fold dilution steps (day 1 of selection). This step further diluted the odorant to 10 μM. On day 4 of the selection (72 h after blasticidin addition), medium from each well was removed completely, 100 μl PrestoBlue® cell viability reagent (ThermoFisher Scientific, Catalog No: 14200-083) diluted in phosphate buffered saline containing 1 mg/ml glucose was added to each well and cells were incubated at 37° C. until a color change was visible in the wells containing no blasticidin. The fluorescence was determined at 560 excitation and 590 nm emission to assess relative cell metabolic activity, which is the net result of cell growth and cell killing in presence of the different blasticidin concentrations. The result was expressed as % viability relative to controls with no cells (0%) and cells treated with olfactory ligand only (100%).

CC(=O)c1c(C)c([N+](=O)[O-])c(C(C)(C)C)c([N+](=O)[O-])c1C [musk ketone]
blasticidin resistance in presence of odorant versus solvent control (HEK293T OR5AN1, odorant 10 μM, blasticidin 0.5-256 μg/ml, PrestoBlue viability day 4): increased resistance to blasticidin; also recorded: Enhanced blasticidin resistance | difference in viability with versus without ligand (blasticidin at 32 μM (so in the source)): ~10 fold | surviving cells (viability) in presence of ligand (blasticidin at 32 μM (so in the source), odorant 10 μM, relative to no cells (0%) and ligand only (100%)): 75% | increase of blasticidin concentration reducing viability by 50% (EC50) in presence of ligand (versus absence of ligand): > 50 fold

— patent US20240426807A1, “SCREENING SYSTEM” (Givaudan SA, priority 2021, published 2024)
